According to publication PMC4769319, “Cohesin Releases DNA through Asymmetric ATPase-Driven Ring Opening” (Molecular Cell, 2016):

Target: T1, Smc1/Smc3 heterodimer with Scc1-C (cohesin) (Saccharomyces cerevisiae, UniProt P32908+P47037, P32908:K39I, form not given)
T1 construct: N-terminal tags; Sf9 insect cells; fluorescently labelled for MST; with Sister chromatid cohesion protein 1
T1 sequence (P32908 1-1225 K39I): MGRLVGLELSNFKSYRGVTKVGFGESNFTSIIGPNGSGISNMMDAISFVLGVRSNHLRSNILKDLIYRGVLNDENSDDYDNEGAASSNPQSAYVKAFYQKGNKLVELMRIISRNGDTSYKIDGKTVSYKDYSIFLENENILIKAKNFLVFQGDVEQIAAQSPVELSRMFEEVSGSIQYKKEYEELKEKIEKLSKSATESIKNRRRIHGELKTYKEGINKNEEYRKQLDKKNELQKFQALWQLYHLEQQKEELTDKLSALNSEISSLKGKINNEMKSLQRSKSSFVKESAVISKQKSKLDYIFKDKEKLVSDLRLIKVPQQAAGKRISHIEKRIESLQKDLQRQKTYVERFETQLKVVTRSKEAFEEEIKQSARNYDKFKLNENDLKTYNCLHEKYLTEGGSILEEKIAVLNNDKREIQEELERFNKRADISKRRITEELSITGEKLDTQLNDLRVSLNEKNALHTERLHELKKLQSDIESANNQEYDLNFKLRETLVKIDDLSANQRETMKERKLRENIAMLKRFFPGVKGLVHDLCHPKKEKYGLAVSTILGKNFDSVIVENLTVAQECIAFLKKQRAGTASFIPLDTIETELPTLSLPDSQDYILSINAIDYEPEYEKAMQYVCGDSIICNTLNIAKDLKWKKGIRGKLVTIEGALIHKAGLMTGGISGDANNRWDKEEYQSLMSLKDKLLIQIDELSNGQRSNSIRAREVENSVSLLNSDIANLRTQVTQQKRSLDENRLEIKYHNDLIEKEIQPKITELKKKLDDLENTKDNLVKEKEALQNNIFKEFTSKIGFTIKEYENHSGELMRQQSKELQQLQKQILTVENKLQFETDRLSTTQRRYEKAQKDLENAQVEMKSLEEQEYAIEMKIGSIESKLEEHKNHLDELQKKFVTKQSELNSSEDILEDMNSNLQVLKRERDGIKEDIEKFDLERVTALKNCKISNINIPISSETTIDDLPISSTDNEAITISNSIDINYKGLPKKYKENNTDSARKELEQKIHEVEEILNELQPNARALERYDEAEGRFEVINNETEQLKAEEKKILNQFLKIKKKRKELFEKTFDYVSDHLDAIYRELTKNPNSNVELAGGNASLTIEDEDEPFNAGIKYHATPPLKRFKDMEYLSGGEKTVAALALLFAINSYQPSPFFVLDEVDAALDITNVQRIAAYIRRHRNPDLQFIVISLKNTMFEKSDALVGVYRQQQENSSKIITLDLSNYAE
T1 sequence (P47037 1-1230): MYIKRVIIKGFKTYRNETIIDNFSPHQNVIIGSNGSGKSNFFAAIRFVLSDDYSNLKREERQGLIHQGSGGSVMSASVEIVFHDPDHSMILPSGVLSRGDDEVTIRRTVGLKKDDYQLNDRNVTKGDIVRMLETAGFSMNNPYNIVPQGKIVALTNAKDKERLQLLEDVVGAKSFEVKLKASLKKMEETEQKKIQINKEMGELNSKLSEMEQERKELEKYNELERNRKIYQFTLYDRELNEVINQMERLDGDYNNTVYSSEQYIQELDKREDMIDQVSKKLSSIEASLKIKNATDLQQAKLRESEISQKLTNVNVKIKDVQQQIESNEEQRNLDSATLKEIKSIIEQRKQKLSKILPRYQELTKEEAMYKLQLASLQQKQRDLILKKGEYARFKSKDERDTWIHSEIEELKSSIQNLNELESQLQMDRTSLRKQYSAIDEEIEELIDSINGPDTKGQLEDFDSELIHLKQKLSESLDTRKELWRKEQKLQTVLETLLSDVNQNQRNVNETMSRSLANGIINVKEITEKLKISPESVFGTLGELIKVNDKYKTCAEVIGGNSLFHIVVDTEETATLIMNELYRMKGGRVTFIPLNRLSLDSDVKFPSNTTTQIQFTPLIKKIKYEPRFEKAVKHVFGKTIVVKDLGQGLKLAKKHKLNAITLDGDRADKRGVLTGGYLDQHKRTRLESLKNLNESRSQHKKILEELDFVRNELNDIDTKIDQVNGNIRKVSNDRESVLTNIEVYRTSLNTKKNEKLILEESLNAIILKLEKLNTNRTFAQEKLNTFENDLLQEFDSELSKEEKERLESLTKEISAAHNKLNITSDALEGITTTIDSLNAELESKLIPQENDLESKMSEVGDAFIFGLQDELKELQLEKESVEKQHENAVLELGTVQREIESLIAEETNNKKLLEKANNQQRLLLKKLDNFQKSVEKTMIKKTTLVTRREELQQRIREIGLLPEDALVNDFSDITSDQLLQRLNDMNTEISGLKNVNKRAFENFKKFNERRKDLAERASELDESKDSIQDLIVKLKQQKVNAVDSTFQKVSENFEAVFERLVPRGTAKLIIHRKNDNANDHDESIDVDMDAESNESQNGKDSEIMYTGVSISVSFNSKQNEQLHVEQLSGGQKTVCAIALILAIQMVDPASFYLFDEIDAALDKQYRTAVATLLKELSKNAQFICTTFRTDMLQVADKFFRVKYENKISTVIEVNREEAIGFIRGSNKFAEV
T1 sequence (Q12158 1-566 partner): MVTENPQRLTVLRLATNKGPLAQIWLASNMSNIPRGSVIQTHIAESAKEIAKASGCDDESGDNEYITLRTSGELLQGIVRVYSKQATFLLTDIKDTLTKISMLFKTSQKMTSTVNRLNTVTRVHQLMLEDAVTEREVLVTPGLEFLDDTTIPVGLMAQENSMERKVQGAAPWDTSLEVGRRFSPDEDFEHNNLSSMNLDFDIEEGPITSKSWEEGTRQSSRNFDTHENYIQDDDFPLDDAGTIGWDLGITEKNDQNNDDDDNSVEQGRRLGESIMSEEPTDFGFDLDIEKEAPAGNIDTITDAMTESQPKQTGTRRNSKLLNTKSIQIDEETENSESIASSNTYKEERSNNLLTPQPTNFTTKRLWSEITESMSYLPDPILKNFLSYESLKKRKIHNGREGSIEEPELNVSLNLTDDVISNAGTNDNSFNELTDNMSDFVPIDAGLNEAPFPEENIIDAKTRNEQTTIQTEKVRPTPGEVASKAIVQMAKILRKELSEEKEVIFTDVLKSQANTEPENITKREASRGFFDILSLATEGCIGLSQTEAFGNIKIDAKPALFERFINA
Experiment: microscale thermophoresis
Conditions: fluorescently labelled protein; Smc1 co-purified with Scc1-C, plus Smc3; binding abrogated

| SMILES | microscale thermophoresis |
| --- | --- |
| Nc1ncnc2c1ncn2[C@@H]1O[C@H](COP(=O)(O)OP(=O)(O)OP(=O)(O)O)[C@@H](O)[C@H]1O [ATP] | each of the Walker A mutations efficiently abrogated binding to ATP and ADP |
| Nc1ncnc2c1ncn2[C@@H]1O[C@H](COP(=O)(O)OP(=O)(O)O)[C@@H](O)[C@H]1O [ADP] | each of the Walker A mutations efficiently abrogated binding to ATP and ADP |
